{"source": "patent US8703768B2", "about": "“Nitrogen containing heteroaryl compounds” (Hoffmann-La Roche Inc., priority 2010, dated 2014)", "note": "pIC50: −log10 of the molar value.", "data": [{"molecular_target": "human PDE10A (Homo sapiens (Human), UniProt Q9Y233)", "sequence (Q9Y233 other isoform, or with tags, fused parts or gaps)": "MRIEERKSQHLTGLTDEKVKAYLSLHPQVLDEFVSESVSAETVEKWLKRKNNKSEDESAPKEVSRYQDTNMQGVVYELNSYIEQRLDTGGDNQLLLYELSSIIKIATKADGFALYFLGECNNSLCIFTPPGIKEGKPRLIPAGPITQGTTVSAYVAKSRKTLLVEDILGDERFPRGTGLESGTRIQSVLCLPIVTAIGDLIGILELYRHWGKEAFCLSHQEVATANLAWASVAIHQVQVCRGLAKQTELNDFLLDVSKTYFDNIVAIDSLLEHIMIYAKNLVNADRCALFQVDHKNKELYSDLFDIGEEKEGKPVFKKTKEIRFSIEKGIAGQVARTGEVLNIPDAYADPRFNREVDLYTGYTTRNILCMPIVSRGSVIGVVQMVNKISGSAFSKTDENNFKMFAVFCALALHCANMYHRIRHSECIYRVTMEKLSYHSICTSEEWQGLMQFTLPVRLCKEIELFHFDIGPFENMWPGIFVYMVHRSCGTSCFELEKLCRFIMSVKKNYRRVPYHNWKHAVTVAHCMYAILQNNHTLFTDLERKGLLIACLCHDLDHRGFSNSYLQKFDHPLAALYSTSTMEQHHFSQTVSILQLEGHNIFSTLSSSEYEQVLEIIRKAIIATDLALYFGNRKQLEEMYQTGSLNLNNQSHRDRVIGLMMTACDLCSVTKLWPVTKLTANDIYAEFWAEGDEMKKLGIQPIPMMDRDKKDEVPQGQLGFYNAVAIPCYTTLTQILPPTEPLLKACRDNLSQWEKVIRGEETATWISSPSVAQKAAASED", "test": "human PDE10A full length Scintillation Proximity Assay (SPA)", "type": "biochemical", "conditions": "50 nM cGMP and 50 nM [3H]-cGMP, 20 minutes at room temperature; read-out: PDE10A inhibition IC50", "how_it_was_run": "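Full-length enzyme incubated with compounds; reaction started with cGMP plus [^3H]-cGMP substrate and run 20 min at room temperature. Stopped with yttrium silicate SPA beads in 18 mM zinc sulphate, 1 h shaking, then scintillation counting; background from enzyme-free wells.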", "values": [{"smiles": "CCn1cc(NC(=O)c2nc(C3CC3)cnc2Nc2cncnc2)c(C(=O)NC)n1", "note": "[Example 107, 6-Cyclopropyl-N-(1-ethyl-3-(methylcarbamoyl)-1H-pyrazol-4-yl)-3-(pyrimidin-5-ylamino)pyrazine-2-carboxamide]", "pIC50": 6.93}, {"smiles": "CN(CC(O)CO)C(=O)c1nn(C)cc1NC(=O)c1nc(C2CC2)ccc1Nc1cncnc1", "note": "(centres unmarked) [Example 46, 6-Cyclopropyl-3-(pyrimidin-5-ylamino)-pyridine-2-carboxylic acid {3-[(2,3-dihydroxy-propyl)-methyl-carbamoyl]-1-methyl-1H-pyrazol-4-yl}-amide]", "pIC50": 7.71}, {"smiles": "CNC(=O)c1c(NC(=O)c2nc(COC)ccc2Nc2cncnc2)cnn1C", "note": "[Example 189, 6-Methoxymethyl-3-(pyrimidin-5-ylamino)-pyridine-2-carboxylic acid (1-methyl-5-methylcarbamoyl-1H-pyrazol-4-yl)-amide]", "pIC50": 6.84}, {"smiles": "CC(C)(O)CNC(=O)c1nc(C2CC2)ccc1NC(=O)c1nc(C2CC2)cnc1Nc1cncnc1", "note": "[Example 159, 6-Cyclopropyl-3-(pyrimidin-5-ylamino)-pyrazine-2-carboxylic acid [6-cyclopropyl-2-(2-hydroxy-2-methyl-propylcarbamoyl)-pyridin-3-yl]-amide]", "pIC50": 9.40}, {"smiles": "CNC(=O)c1c(NC(=O)c2nc(OCC(F)(F)F)cnc2Nc2cncnc2)cnn1C", "note": "[Example 339, 3-(Pyrimidin-5-ylamino)-6-(2,2,2-trifluoro-ethoxy)-pyrazine-2-carboxylic acid (1-methyl-5-methylcarbamoyl-1H-pyrazol-4-yl)-amide]", "pIC50": 7.31}, {"smiles": "COCCN(C)C(=O)c1ncncc1NC(=O)c1nc(C2CC2)cnc1Nc1cncnc1", "note": "[Example 118, 5-{[6-Cyclopropyl-3-(pyrimidin-5-ylamino)-pyrazine-2-carbonyl]-amino}-pyrimidine-4-carboxylic acid (2-methoxy-ethyl)-methyl-amide]", "pIC50": 7.05}, {"smiles": "Cn1cc(NC(=O)c2nc(C3CC3)cnc2Nc2cncnc2)c(C(=O)NCC(C)(C)O)n1", "note": "[Example 95, 6-Cyclopropyl-3-(pyrimidin-5-ylamino)-pyrazine-2-carboxylic acid [3-(2-hydroxy-2-methyl-propylcarbamoyl)-1-methyl-1H-pyrazol-4-yl]-amide]", "pIC50": 8.74}, {"smiles": "Cn1ncc(NC(=O)c2nc(C3CC3)cnc2Nc2cncnc2)c1C(=O)N1CCCO1", "note": "[Example 335, 6-Cyclopropyl-3-(pyrimidin-5-ylamino)-pyrazine-2-carboxylic acid [5-(isoxazolidine-2-carbonyl)-1-methyl-1H-pyrazol-4-yl]-amide]", "pIC50": 9.10}, {"smiles": "CCn1ncc(NC(=O)c2nc(C3CC3)cnc2Nc2cncnc2)c1C(=O)NCC1CCCO1", "note": "(centres unmarked) [Example 233, 6-Cyclopropyl-3-(pyrimidin-5-ylamino)-pyrazine-2-carboxylic acid {1-ethyl-5-[(tetrahydro-furan-2-ylmethyl)-carbamoyl]-1H-pyrazol-4-yl}-amide]", "pIC50": 7.60}, {"smiles": "Cn1ncc(NC(=O)c2nc(C3CC3)cnc2Nc2cncnc2)c1C(=O)N1CCCC1", "note": "[Example 156, 6-Cyclopropyl-3-(pyrimidin-5-ylamino)-pyrazine-2-carboxylic acid [1-methyl-5-(pyrrolidine-1-carbonyl)-1H-pyrazol-4-yl]-amide]", "pIC50": 7.95}, {"smiles": "CNC(=O)c1nc(C2CC2)ccc1NC(=O)c1nc(C2CC2)cnc1Nc1cncnc1", "note": "[Example 158, 6-Cyclopropyl-3-(pyrimidin-5-ylamino)-pyrazine-2-carboxylic acid (6-cyclopropyl-2-methylcarbamoyl-pyridin-3-yl)-amide]", "pIC50": 9.10}, {"smiles": "CC(C)N(C)C(=O)c1c(NC(=O)c2nc(C3CC3)cnc2Nc2cncnc2)cnn1C", "note": "[Example 227, 6-Cyclopropyl-3-(pyrimidin-5-ylamino)-pyrazine-2-carboxylic acid [5-(isopropyl-methyl-carbamoyl)-1-methyl-1H-pyrazol-4-yl]-amide]", "pIC50": 7.19}, {"smiles": "CNC(=O)c1nc(C2CCCO2)ccc1NC(=O)c1nc(C2CC2)cnc1Nc1cncnc1", "note": "(centres unmarked) [Example 177, 6-Cyclopropyl-3-(pyrimidin-5-ylamino)-pyrazine-2-carboxylic acid [2-methylcarbamoyl-6-(tetrahydro-furan-2-yl)-pyridin-3-yl]-amide]", "pIC50": 9.70}, {"smiles": "CNC(=O)c1cc(F)c(F)cc1NC(=O)c1nc(C2CC2)cnc1Nc1cncnc1", "note": "[Example 288, 6-Cyclopropyl-3-(pyrimidin-5-ylamino)-pyrazine-2-carboxylic acid (4,5-difluoro-2-methylcarbamoyl-phenyl)-amide]", "pIC50": 9.10}, {"smiles": "CN(CCO)C(=O)c1ncccc1NC(=O)c1nc(C2CC2)cnc1Nc1cncnc1", "note": "[Example 269, 6-Cyclopropyl-3-(pyrimidin-5-ylamino)-pyrazine-2-carboxylic acid {2-[(2-hydroxy-ethyl)-methyl-carbamoyl]-pyridin-3-yl}-amide]", "pIC50": 7.90}, {"smiles": "O=C(NC1CCC1)c1ccncc1NC(=O)c1nc(C2CC2)ccc1Nc1cncnc1", "note": "[Example 58, 6-Cyclopropyl-3-(pyrimidin-5-ylamino)-pyridine-2-carboxylic acid (4-cyclobutylcarbamoyl-pyridin-3-yl)-amide]", "pIC50": 8.96}, {"smiles": "COC1CCN(C(=O)c2ccncc2NC(=O)c2nc(C3CC3)ccc2Nc2cncnc2)C1", "note": "(centres unmarked) [Example 62, 6-Cyclopropyl-3-(pyrimidin-5-ylamino)-pyridine-2-carboxylic acid [4-(3-methoxy-pyrrolidine-1-carbonyl)-pyridin-3-yl]-amide]", "pIC50": 7.03}, {"smiles": "O=C1CN(C(=O)c2ccncc2NC(=O)c2nc(C3CC3)ccc2Nc2cncnc2)CCN1", "note": "[Example 60, 6-Cyclopropyl-3-(pyrimidin-5-ylamino)-pyridine-2-carboxylic acid [4-(3-oxo-piperazine-1-carbonyl)-pyridin-3-yl]-amide]", "pIC50": 6.64}, {"smiles": "CN(C)CCNC(=O)c1c(NC(=O)c2nc(C3CC3)cnc2Nc2cncnc2)cnn1C", "note": "[Example 313, 6-Cyclopropyl-3-(pyrimidin-5-ylamino)-pyrazine-2-carboxylic acid [5-(2-dimethylamino-ethylcarbamoyl)-1-methyl-1H-pyrazol-4-yl]-amide]", "pIC50": 7.28}, {"smiles": "CC(C)(O)CNC(=O)c1cc(C(F)(F)F)ccc1NC(=O)c1nc(C2CC2)cnc1Nc1cncnc1", "note": "[Example 295, 6-Cyclopropyl-3-(pyrimidin-5-ylamino)-pyrazine-2-carboxylic acid [2-(2-hydroxy-2-methyl-propylcarbamoyl)-4-trifluoromethyl-phenyl]-amide]", "pIC50": 8.64}, {"smiles": "CNC(=O)c1nn(CC2CC2)cc1NC(=O)c1nc(C2CC2)ccc1Nc1cncnc1", "note": "[Example 12, 6-Cyclopropyl-3-(pyrimidin-5-ylamino)-pyridine-2-carboxylic acid (1-cyclopropylmethyl-3-methylcarbamoyl-1H-pyrazol-4-yl)-amide]", "pIC50": 6.31}, {"smiles": "CN1CCC(N(C)C(=O)c2c(NC(=O)c3nc(C4CC4)cnc3Nc3cncnc3)cnn2C)C1", "note": "(centres unmarked) [Example 247, 6-Cyclopropyl-3-(pyrimidin-5-ylamino)-pyrazine-2-carboxylic acid {1-methyl-5-[methyl-(1-methyl-pyrrolidin-3-yl)-carbamoyl]-1H-pyrazol-4-yl}-amide]", "pIC50": 6.54}, {"smiles": "O=C(NCCO)c1ncccc1NC(=O)c1nc(C2CC2)cnc1Nc1cncnc1", "note": "[Example 271, 6-Cyclopropyl-3-(pyrimidin-5-ylamino)-pyrazine-2-carboxylic acid [2-(2-hydroxy-ethylcarbamoyl)-pyridin-3-yl]-amide]", "pIC50": 9.40}, {"smiles": "CN(C)C1CCN(C(=O)c2ccncc2NC(=O)c2nc(C3CC3)ccc2Nc2cncnc2)C1", "note": "(centres unmarked) [Example 53, 6-Cyclopropyl-3-(pyrimidin-5-ylamino)-pyridine-2-carboxylic acid [4-(3-dimethylamino-pyrrolidine-1-carbonyl)-pyridin-3-yl]-amide]", "pIC50": 7.13}, {"smiles": "COCC(C)NC(=O)c1nn(C)cc1NC(=O)c1nc(C2CC2)ccc1Nc1cncnc1", "note": "(centres unmarked) [Example 41, 6-Cyclopropyl-3-(pyrimidin-5-ylamino)-pyridine-2-carboxylic acid [3-(2-methoxy-1-methyl-ethylcarbamoyl)-1-methyl-1H-pyrazol-4-yl]-amide]", "pIC50": 8.16}, {"smiles": "CNC(=O)c1c(NC(=O)c2nc(C(C)(C)O)cnc2Nc2cncnc2)cnn1C", "note": "[Example 341, 6-(1-Hydroxy-1-methyl-ethyl)-3-(pyrimidin-5-ylamino)-pyrazine-2-carboxylic acid (1-methyl-5-methylcarbamoyl-1H-pyrazol-4-yl)-amide]", "pIC50": 7.55}, {"smiles": "CN(C)C(=O)c1ccncc1NC(=O)c1nc(C2CC2)ccc1Nc1cncnc1", "note": "[Example 23, 6-Cyclopropyl-3-(pyrimidin-5-ylamino)-pyridine-2-carboxylic acid (4-dimethylcarbamoyl-pyridin-3-yl)-amide]", "pIC50": 7.06}, {"smiles": "CNC(=O)c1c(NC(=O)c2nc(CC(C)C)ncc2Nc2cncnc2)cnn1C", "note": "[Example 332, 2-Isobutyl-5-(pyrimidin-5-ylamino)-pyrimidine-4-carboxylic acid (1-methyl-5-methylcarbamoyl-1H-pyrazol-4-yl)-amide]", "pIC50": 7.89}, {"smiles": "CNC(=O)c1ncccc1NC(=O)c1nc(C2CC2)cnc1Nc1cncnc1", "note": "[Example 128, 6-Cyclopropyl-3-(pyrimidin-5-ylamino)-pyrazine-2-carboxylic acid (2-methylcarbamoyl-pyridin-3-yl)-amide]", "pIC50": 8.89}, {"smiles": "O=C(Nc1cncnc1C(=O)N1CCCCC1)c1nc(C2CC2)cnc1Nc1cncnc1", "note": "[Example 212, 6-Cyclopropyl-3-(pyrimidin-5-ylamino)-pyrazine-2-carboxylic acid [4-(piperidine-1-carbonyl)-pyrimidin-5-yl]-amide]", "pIC50": 7.09}, {"smiles": "CNC(=O)c1c(NC(=O)c2nc(C3CC3)cnc2Nc2cncnc2)cnn1CCOC", "note": "[Example 147, 6-Cyclopropyl-3-(pyrimidin-5-ylamino)-pyrazine-2-carboxylic acid [1-(2-methoxy-ethyl)-5-methylcarbamoyl-1H-pyrazol-4-yl]-amide]", "pIC50": 8.92}, {"smiles": "Cc1ncc(Nc2cncnc2)c(C(=O)Nc2cn(C)nc2C(=O)NCC(C)(C)O)n1", "note": "[Example 112, N-(3-(2-Hydroxy-2-methylpropylcarbamoyl)-1-methyl-1H-pyrazol-4-yl)-2-methyl-5-(pyrimidin-5-ylamino)pyrimidine-4-carboxamide]", "pIC50": 7.10}]}]}
